For series [1], the system named is T. cruzi Tulahuen strain amastigotes. The experiment in a line: Trypanocidal activity against amastigote forms in LLCMK2 cells, Tulahuen strain. The format is cell-based. Particulars: Trypanosoma cruzi; for killing at 32 µM: LLC-MK2, 120 h, amastigote lysis, 5 days, read-out: %cell lysis at 32 μM ama Tula; for EC50: LLC-MK2.
Procedure: (§1) The assays against amastigote forms were performed in LLCMK2 cells. Previously, the cells were cultivated in 96-wells microplates (10^3 cells/well). […] After this, the microplates were incubated at 37°C, in CO2 atmosphere, for 5 days. Then, 10 μL of FluoReporter lacZ/Galactosidase Quantitative Kit (Life Technologies) were added and after 30 minutes the fluorometric reaction was read in a microplate reader (Synergy H1, Biotek) at 386 nm excitation and 448 nm emission. For both assays the percentage of parasite lysis was determined from the following formula: %lysis = 100 –{[(X-PC)/(PC-NC)]x100}, where the optical density values of the samples (X), the positive controls (PC) and negative controls (NC) were used. Culture medium was used as positive control (PC) and medium with 0.6% DMSO (v/v) as negative control (NC). All assays were performed in triplicate with two independent experiments.
The test system of series [2] is T. cruzi CL-Brener strain amastigotes. The experiment in a line: Trypanocidal activity against amastigote forms in LLCMK2 cells, CL-Brener strain. The format is cell-based. As to conditions: Trypanosoma cruzi, LLC-MK2, 120 h, amastigote lysis, 5 days, read-out: %cell lysis at 32 μM ama Brener.
Procedure: as §1
Series [3] in a line: Lysis of LLCMK2 host cells. Format: cell-based. As to conditions: rhesus monkey, footnote of Table 3, cell line not stated.
Another series relates to LLCMK2 cells. Put plainly: Lysis of LLCMK2 host cells. The format is cell-based. As to conditions: Macaca mulatta, LLC-MK2, 32 μM, read-out: %cell lysis at 32 μM LLCMK2.
In series [4] the target is T1, cruzain (Trypanosoma cruzi, UniProt P25779).
T1 construct: made in house
Put plainly: biochemical. Particulars: 37°C, pH 5.5, substrate Z-FR-AMC.
Procedure: Enzyme kinetic assays were carried out at 37°C in 200 L of a solution containing 100 mM acetate buffer pH 5.5, 300 mM NaCl, 5 mM DTT (dithiothreitol), 5% v/v DMSO (dimethyl sulfoxide), 0.01% v/v Triton X-100 and 0.15 nM cruzain, using Corning® 96-well black flat bottom microplates. The rate of the reaction was monitored using a Biotek Synergy HT plate reader through the fluorescence emission at 460 nm (excitation at 355 nm) due to the hydrolysis of the substrate Z-Phe-Arg-7-amido-4-methylcoumarin (Z-FR-AMC, Sigma-Aldrich). The enzyme stock aliquot was rapidly thawed at 37°C and kept on ice until activation, in which it was incubated for 20 min. in the assay buffer (100 mM acetate pH 5.5 and 5 mM DTT) followed by additional 2 min. incubation with inhibitors before the reaction was started by the addition of the substrate.
Visual inspection and a pre-reading of plate wells were performed to check for possible precipitation and background fluorescence, respectively. Fluorescence emission spectra were also recorded for all inhibitors, using the same excitation wavelength (355 nm) as for the fluorometric assay. […] The reaction was started by the addition of varying concentrations of the substrate and the wells monitored for a total of 5 minutes of reaction. The initial velocities of the substrate hydrolysis under first-order reaction were calculated by Gen5 Biotek software based on the linear-regression coefficient from the fit to data of Relative Fluorescence Unit (mRFU) as a function of time (min).
Each experiment was performed in duplicates for each compound being tested. […] All inhibitors were evaluated in two different concentrations, which were chosen based on a previous screening (percentage of inhibition) at 1.7 μM substrate (~K M). […] SigmaPlot (v. 10.0) was employed for the non-linear fit and the kinetic parameters determination.

For series [5], the target named is T1, cruzain. The experiment in a line: Reversibility assay: recovery of cruzain activity after rapid large dilution. The format is biochemical. Particulars: 4.5 μM compound incubated with 15 nM cruzain for 30 min, diluted 100-fold. The method, then:
The progress curve for this sample was then measured and compared to that of a similar sample of enzyme incubated and diluted in the absence of inhibitor. The irreversible inhibitor E-64 (CAS 66701-25-5, Sigma Aldrich) was used as reference.

The subject of series [6] is Balb-c 3T3 clone A31 cells. The experiment in a line: MTT cytotoxicity assay using mouse fibroblast cells. Format: cell-based. Particulars: 250 μM, Balb-c 3T3 cells, MTT, 24, 48 and 72 h, benznidazole as control. The method, then:
All compounds were subjected to the MTT colorimetric assay using Balb-c 3T3 clone A31 cells (mouse fibroblast cells) acquired from the Rio de Janeiro Cell Bank (BCRJ code 0047). Inhibition values were determined in the cell-based assay as previously described. Briefly, cells were cultured at 37°C in an atmosphere of 5% CO2 using DMEM medium (Cultilab, Campinas-SP, Brazil) supplemented with 3.5 g glucose (Sigma-Aldrich), 1% penicillin/streptomycin solution and 10% FBS (Cultilab). Cells were plated at a concentration of 10^5 cell/mL in 96-well plates and incubated for 24 h. All compounds were freshly diluted from 50 mM DMSO stock solutions to obtain the final concentration of 250 μM and added to each well by replacing the medium. The cell viability was assessed during 24, 48 and 72 h using the MTT (Sigma-Aldrich) reagent, with an incubation time of 3 h. […] The readout was obtained using Biotek Synergy HT plate reader at 570 nm. Benznidazole was used as control. This assay was done in quatruplicate in two independent experiments. Statistical analyses were made in GraphPad Prism 5. Dunnett’s multiple comparison tests were performed using benznidazole as the standard compound for the ordinary ANOVA analysis using 95% confidence interval.
For orientation: Tetrazolium assays rely on reduction of a dye to a coloured formazan, in cell work by metabolically active cells.

Where [7] appears, read: amastigote, T. cruzi Tulahuen strain, read-out: pEC50 ama Tula (converted).

Like-named read-outs stand apart in the source and are kept apart here.

As usually defined, the CC50 is the concentration that lowers cell viability or growth by half. A high value points to better tolerance by the cells. For orientation: Ki means the equilibrium dissociation constant of an inhibitor or competing ligand from its target. A lower Ki goes with higher affinity. A word on the melting point: it is the temperature, or range, at which the solid turns liquid.
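Wherever Ki is given: fluorometric read-out of substrate hydrolysis at excitation 355 nm and emission 460 nm, initial rates over 5 min, Ki from nonlinear kinetic fits, duplicate runs.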

T1 sequence (P25779 123-337 limits assumed): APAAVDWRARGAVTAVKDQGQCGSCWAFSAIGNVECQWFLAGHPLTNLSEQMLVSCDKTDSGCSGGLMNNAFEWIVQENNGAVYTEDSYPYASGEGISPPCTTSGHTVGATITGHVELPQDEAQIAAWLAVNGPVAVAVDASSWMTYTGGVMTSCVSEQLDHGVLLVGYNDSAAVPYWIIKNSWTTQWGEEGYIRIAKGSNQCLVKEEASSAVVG

For the compound `O=C(Cn1ccnc1[N+](=O)[O-])NCc1ccccc1` [Benznidazole, reference compound], the killing at 32 µM turned out to be 78 ± 3% in series [1] (T. cruzi Tulahuen strain) and 29 ± 2% in series [2]. For the same compound, in series [1] (setting [7]), the EC50 was 1.58 µM. In series [3], this compound displayed a CC50 at 5 days of 353 µM. In the series on LLCMK2 cells, the cytotoxicity at 32 µM came out at 31 ± 2%.
With `N#CCNC(=O)[C@H](Cc1ccccc1)NC(=O)c1ccccc1` [Compound 5, (2S)-N-(cyanomethyl)-3-phenyl-2-(phenylformamido)propanamide], the Ki on cruzain [4] was 0.501 µM. For the same compound, the reversibility of inhibition entry on cruzain [5] is “reversible”. Besides, the EC50 in series [1] (setting [7]) is 126 µM.
For the compound `N#CCNC(=O)[C@H](Cc1ccc(O)cc1)NC(=O)c1ccccc1` [Compound 10, (2S)-N-(cyanomethyl)-3-(4-hydroxyphenyl)-2-(phenylformamido)propanamide], the melting point lay within 209 to 210 °C. The same compound gave a Ki at cruzain [4] of 0.2 µM. For the same compound, in series [1] (T. cruzi Tulahuen strain), the killing at 32 µM came out at 32 ± 4%. Also, the EC50 in series [1] (setting [7]) is 200 µM. Also, in series [2], the killing at 32 µM stood at 18 ± 1%. Further, the cytotoxicity at 32 µM with LLCMK2 cells worked out at 18 ± 3%.
As for `N#CCNC(=O)[C@H](Cc1ccc(OC(=O)c2ccccc2)cc1)NC(=O)c1ccccc1` [Compound 11, 4-[(2S)-2-[(cyanomethyl)carbamoyl]-2-(phenylformamido)ethyl]phenyl benzoate], the melting point lay within 254 to 256 °C. This compound gave a Ki on cruzain [4] of 1.26 µM. Moreover, the killing at 32 µM in series [1] (T. cruzi Tulahuen strain) was 16 ± 6%. For the same compound, the EC50 in series [1] (setting [7]) is above 316 µM. In series [2], the killing at 32 µM is 17 ± 1%. For the same compound, in the series on LLCMK2 cells, the cytotoxicity at 32 µM turned out to be 8 ± 5%.
`N#CCNC(=O)[C@H](Cc1c[nH]c2ccccc12)NC(=O)c1ccccc1` [Compound 12, (2S)-N-(cyanomethyl)-3-(1H-indol-3-yl)-2-(phenylformamido)propanamide]: the melting point lay within 158 to 159 °C. In addition, the Ki on cruzain [4] was 0.398 µM. In series [1] (T. cruzi Tulahuen strain), the killing at 32 µM came to 60 ± 5%. Also, the EC50 in series [1] (against the parasite (amastigote, Tulahuen strain), read-out: EC50) was found to be 28 µM. The EC50 in series [1] (setting [7]) is 25.1 µM. Moreover, the killing at 32 µM in series [2] was found to be 17 ± 1%. The cytotoxicity at 32 µM in the series on LLCMK2 cells amounted to 34 ± 5%. For the same compound, the cytotoxicity result in series [6] was “same range of cytotoxicity when compared to benznidazole”.
As for `N#CCNC(=O)C1(NC(=O)c2ccccc2)CCCC1` [Compound 14, N-(1-[(cyanomethyl)carbamoyl]cyclopentyl)benzamide], the melting point is 165 to 166 °C. Moreover, the affinity at cruzain [4] corresponds to a Ki of 7.94 µM. Further, the killing at 32 µM in series [1] (T. cruzi Tulahuen strain) was 25 ± 4%. Moreover, the EC50 in series [1] (setting [7]) was 200 µM. Besides, the killing at 32 µM in series [2] turned out to be 9 ± 1%. Also, in the series on LLCMK2 cells, the cytotoxicity at 32 µM was 18 ± 1%.
Compound `N#CCNC(=O)[C@H](Cc1ccccc1)NC(=O)c1ccco1` [Compound 17, (2S)-N-(cyanomethyl)-2-(furan-2-ylformamido)-3-phenylpropanamide] gave a melting point of 176 to 179 °C. For the same compound, on cruzain [4], the inhibition constant (Ki) is 0.501 µM. The killing at 32 µM in series [1] (T. cruzi Tulahuen strain) was found to be 36 ± 1%. Also, the EC50 in series [1] (setting [7]) was 100 µM. For the same compound, the killing at 32 µM in series [2] turned out to be 21 ± 2%. For the same compound, the cytotoxicity at 32 µM in the series on LLCMK2 cells worked out at 24 ± 0.2%.
Turning to `N#CCNC(=O)[C@H](Cc1ccccc1)NC(=O)c1ccncn1` [Compound 18, (2S)-N-(cyanomethyl)-3-phenyl-2-(pyrimidin-4-ylformamido)propanamide], the melting point was 171 to 173 °C. The compound also gave an inhibitory constant (Ki) at cruzain [4] of 1.26 µM. Besides, the killing at 32 µM in series [1] (T. cruzi Tulahuen strain) was 17 ± 2%. Also, the EC50 in series [1] (setting [7]) was 200 µM. Also, in series [2], the killing at 32 µM was found to be 18 ± 1%. Further, in the series on LLCMK2 cells, the cytotoxicity at 32 µM came out at 20 ± 1%.
`CC(C)C[C@H](NC(=O)c1cc(C(C)(C)C)nn1C)C(=O)NCC#N` [Compound 29, (2S)-2-[(3-tert-butyl-1-methyl-1H-pyrazol-5-yl)formamido]-N-(cyanomethyl)-4 methylpentanamide] returned a melting point of 179 to 180 °C. The compound also showed a Ki on cruzain [4] of 0.0631 µM. Moreover, the killing at 32 µM in series [1] (T. cruzi Tulahuen strain) was 17 ± 4%. Further, the killing at 32 µM in series [2] came to 10 ± 1%. Also, in the series on LLCMK2 cells, the cytotoxicity at 32 µM was 27 ± 18%.

These data come from publication PMC4501791, “Molecular Design, Synthesis and Trypanocidal Activity of Dipeptidyl Nitriles as Cruzain Inhibitors” (PLoS Neglected Tropical Diseases, 2015).
